Experimental data as given in ChEMBL document CHEMBL1201862, “PubChem BioAssay data set” (2004).
The source made the active and inactive calls.

What was measured:
Protein RecA = biological target: T1, Protein RecA (Mycobacterium tuberculosis, UniProt P9WHJ3); test: GFP-RecA MOA-DTT Measured in Biochemical System Using Plate Reader - 2047-05_Inhibitor_Dose_DryPowder_Activity. [Related pubchem assays (depositor defined):AID2223]; design: species or system Mycobacterium tuberculosis H37Rv
T1 sequence (P9WHJ3 whole entry): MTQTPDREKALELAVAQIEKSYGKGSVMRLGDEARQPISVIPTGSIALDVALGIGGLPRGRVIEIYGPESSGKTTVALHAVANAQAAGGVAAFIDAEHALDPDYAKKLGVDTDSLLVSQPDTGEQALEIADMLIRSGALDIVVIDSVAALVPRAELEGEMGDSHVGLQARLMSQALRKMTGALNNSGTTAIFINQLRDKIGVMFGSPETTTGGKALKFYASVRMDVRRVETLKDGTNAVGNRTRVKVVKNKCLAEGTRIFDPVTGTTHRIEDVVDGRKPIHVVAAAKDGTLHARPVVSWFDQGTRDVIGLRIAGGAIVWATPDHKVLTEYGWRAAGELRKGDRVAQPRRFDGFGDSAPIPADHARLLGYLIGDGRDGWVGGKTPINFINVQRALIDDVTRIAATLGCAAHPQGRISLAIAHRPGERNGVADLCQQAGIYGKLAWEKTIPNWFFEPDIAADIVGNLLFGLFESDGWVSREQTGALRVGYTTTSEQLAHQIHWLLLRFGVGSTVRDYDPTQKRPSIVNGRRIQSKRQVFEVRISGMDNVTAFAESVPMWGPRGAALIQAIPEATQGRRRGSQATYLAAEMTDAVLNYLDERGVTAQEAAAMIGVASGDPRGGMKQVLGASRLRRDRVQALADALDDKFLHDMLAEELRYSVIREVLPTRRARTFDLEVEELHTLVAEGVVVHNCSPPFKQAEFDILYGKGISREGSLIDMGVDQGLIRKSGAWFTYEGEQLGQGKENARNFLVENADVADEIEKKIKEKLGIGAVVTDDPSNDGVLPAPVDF

Cysteine protease ATG4B = biological target: T2, Cysteine protease ATG4B (Homo sapiens, UniProt Q9Y4P1); type: functional;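 note: Fluorescence-based dose-response confirmation assay measuring inhibition of ATG4B activity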
T2 sequence (Q9Y4P1 whole entry): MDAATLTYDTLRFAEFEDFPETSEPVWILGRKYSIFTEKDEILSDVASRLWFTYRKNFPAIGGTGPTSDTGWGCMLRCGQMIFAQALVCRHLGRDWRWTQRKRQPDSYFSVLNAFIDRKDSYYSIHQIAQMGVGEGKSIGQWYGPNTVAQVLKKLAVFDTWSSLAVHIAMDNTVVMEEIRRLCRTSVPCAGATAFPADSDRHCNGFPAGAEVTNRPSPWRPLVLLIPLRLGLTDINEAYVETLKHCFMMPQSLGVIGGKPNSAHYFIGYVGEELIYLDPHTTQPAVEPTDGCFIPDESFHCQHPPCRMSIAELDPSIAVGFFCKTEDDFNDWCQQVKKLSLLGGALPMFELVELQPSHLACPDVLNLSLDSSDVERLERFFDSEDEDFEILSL

[1] = biological target: Tyrosine-protein phosphatase non-receptor type 22 (Homo sapiens, UniProt Q9Y2R2); type: functional;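 note: confirmatory dose-response retesting of primary uHTS hits against LYP; potency is for inhibition of phosphatase activity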
[2] = biological target: Platelet-derived growth factor receptor beta (Homo sapiens, UniProt P09619); type: functional;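 note: value comes from a kinome panel, with PDGFRB tested as one panel member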
Sequence of Platelet-derived growth factor receptor beta (P09619 whole entry): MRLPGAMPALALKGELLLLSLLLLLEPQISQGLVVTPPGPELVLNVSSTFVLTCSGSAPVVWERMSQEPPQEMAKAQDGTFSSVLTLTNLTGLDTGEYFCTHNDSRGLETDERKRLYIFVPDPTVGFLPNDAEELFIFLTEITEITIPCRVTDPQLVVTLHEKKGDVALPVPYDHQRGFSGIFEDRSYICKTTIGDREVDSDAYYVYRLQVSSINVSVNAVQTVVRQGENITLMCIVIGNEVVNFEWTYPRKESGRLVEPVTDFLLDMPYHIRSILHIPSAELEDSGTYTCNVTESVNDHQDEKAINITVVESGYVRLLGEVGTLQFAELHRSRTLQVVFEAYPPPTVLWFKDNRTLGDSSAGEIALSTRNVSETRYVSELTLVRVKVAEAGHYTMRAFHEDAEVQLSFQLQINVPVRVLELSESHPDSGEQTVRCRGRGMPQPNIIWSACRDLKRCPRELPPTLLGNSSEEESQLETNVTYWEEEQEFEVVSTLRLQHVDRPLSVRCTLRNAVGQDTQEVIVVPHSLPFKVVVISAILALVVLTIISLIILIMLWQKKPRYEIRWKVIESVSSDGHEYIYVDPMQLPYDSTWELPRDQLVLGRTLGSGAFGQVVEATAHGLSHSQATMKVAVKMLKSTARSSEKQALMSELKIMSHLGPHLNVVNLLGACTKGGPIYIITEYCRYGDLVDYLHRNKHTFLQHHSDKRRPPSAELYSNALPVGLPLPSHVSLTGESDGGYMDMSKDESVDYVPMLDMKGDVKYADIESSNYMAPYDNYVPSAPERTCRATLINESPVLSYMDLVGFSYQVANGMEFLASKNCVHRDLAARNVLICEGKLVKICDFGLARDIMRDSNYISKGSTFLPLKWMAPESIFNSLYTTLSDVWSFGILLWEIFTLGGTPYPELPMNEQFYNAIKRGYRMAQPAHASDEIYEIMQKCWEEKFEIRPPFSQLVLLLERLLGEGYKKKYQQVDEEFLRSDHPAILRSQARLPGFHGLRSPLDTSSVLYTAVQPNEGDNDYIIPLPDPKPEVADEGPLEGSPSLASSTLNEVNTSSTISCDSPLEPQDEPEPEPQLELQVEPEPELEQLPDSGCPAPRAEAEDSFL

[3] = biological target: T3, Serine/threonine-protein kinase Chk1 (Homo sapiens, UniProt O14757); type: functional;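 note: measured as one member of a kinome-wide kinase profiling panel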
T3 sequence (O14757 whole entry): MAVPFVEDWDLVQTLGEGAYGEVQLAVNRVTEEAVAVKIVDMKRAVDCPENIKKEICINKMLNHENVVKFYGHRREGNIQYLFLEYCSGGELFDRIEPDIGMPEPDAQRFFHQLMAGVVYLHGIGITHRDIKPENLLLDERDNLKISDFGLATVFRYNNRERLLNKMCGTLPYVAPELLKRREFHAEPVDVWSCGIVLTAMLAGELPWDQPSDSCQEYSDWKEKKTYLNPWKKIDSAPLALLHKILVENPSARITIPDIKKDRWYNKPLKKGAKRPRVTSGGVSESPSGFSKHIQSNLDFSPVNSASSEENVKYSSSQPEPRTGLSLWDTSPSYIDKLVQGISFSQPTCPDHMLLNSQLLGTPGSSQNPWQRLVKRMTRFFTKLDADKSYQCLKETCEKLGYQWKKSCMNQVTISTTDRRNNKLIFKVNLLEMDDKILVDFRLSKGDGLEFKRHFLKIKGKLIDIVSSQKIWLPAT

[4] = biological target: Dual specificity tyrosine-phosphorylation-regulated kinase 1B (Homo sapiens, UniProt Q9Y463); test: Navigating the Kinome. Panel member name: DYRK1B; type: functional
Sequence of Dual specificity tyrosine-phosphorylation-regulated kinase 1B (Q9Y463 whole entry): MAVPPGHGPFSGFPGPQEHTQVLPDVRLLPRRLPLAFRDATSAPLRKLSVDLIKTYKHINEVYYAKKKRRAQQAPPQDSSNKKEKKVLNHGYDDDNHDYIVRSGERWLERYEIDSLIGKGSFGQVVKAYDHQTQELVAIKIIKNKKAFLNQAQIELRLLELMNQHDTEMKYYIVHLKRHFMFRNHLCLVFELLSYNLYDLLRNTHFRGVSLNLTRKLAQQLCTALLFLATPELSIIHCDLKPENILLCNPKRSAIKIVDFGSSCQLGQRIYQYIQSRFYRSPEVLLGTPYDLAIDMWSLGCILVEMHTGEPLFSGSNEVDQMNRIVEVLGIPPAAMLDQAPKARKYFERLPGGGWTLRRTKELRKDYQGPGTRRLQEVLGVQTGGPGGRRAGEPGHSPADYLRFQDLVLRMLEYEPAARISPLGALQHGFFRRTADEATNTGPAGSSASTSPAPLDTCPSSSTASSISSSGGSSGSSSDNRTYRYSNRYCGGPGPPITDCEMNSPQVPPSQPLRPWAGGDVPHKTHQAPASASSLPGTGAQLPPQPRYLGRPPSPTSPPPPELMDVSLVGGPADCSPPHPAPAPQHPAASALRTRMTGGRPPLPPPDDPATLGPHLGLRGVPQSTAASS

[5] = biological target: Receptor-type tyrosine-protein kinase FLT3 (Homo sapiens, UniProt P36888); type: functional;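 note: FLT3 was tested as one member of a kinome-wide kinase panel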
Sequence of Receptor-type tyrosine-protein kinase FLT3 (P36888 whole entry): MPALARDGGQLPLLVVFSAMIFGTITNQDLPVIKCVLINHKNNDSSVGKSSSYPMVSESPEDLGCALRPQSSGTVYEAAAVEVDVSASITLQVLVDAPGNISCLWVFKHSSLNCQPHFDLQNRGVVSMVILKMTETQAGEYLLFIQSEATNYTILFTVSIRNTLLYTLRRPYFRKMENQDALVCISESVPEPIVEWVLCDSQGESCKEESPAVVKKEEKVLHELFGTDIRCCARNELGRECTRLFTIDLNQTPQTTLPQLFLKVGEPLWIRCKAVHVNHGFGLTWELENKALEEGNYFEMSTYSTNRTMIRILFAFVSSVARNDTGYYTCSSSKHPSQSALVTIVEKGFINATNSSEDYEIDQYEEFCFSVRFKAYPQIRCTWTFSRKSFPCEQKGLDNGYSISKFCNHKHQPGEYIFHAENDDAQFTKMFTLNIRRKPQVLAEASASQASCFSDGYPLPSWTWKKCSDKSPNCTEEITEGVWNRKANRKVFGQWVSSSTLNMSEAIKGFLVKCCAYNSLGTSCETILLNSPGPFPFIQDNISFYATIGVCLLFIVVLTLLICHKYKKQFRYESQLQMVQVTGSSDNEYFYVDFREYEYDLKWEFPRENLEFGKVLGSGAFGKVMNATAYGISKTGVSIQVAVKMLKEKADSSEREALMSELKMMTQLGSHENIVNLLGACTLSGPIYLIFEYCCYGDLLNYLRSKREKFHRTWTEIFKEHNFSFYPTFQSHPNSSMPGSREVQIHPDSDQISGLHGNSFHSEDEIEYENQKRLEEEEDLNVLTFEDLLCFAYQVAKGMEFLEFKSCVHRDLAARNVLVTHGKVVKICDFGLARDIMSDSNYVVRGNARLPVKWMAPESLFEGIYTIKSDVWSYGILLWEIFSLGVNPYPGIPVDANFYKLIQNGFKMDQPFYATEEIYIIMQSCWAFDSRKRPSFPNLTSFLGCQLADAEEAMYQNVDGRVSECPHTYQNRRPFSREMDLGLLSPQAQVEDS

[6] = biological target: Cyclin-dependent kinase 5 (Homo sapiens, UniProt Q00535); type: functional;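 note: CDK5 measured as one member of a kinase profiling panel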
Sequence of Cyclin-dependent kinase 5 (Q00535 whole entry): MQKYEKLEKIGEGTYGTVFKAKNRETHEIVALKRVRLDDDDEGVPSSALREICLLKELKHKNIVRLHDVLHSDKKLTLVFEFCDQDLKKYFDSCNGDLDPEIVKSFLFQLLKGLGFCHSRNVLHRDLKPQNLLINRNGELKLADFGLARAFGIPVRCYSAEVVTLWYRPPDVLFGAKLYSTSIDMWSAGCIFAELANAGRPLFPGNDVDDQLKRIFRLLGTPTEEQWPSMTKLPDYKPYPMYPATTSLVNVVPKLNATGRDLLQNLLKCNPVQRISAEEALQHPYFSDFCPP

[7] = biological target: Cyclin-dependent kinase 8 (Homo sapiens, UniProt P49336); test: Navigating the Kinome. Panel member name: CDK8; type: functional
Sequence of Cyclin-dependent kinase 8 (P49336 whole entry): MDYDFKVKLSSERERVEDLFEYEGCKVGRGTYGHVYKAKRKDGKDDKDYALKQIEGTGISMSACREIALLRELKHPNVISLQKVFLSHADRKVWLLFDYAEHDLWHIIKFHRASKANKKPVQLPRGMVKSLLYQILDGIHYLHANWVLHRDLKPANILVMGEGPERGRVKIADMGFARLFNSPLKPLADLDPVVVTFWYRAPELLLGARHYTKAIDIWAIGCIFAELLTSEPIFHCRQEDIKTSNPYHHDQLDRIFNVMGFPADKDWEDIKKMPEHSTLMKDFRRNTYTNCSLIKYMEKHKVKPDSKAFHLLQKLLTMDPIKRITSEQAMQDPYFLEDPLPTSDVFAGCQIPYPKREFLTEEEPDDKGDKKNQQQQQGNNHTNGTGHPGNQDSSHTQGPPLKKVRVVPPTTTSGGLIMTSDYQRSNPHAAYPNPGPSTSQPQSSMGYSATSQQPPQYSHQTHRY

[8] = biological target: Calcium/calmodulin-dependent protein kinase type II subunit alpha (Homo sapiens, UniProt Q9UQM7); test: Navigating the Kinome. Panel member name: CAMK2A; type: functional
Sequence of Calcium/calmodulin-dependent protein kinase type II subunit alpha (Q9UQM7 whole entry): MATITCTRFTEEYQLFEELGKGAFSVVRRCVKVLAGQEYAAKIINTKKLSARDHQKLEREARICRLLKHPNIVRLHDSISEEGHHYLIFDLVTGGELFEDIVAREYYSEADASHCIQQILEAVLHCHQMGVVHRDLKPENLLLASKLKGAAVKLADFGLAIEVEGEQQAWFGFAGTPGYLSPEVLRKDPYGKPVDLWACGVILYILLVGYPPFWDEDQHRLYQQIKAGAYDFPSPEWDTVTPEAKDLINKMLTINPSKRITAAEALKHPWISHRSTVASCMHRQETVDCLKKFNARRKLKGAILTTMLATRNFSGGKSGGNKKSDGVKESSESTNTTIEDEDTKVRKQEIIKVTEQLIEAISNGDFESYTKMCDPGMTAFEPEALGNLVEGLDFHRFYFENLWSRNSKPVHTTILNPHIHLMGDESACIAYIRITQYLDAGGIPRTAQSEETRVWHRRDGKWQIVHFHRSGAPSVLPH

[9] = biological target: T4, Sentrin-specific protease 8 (Homo sapiens, UniProt Q96LD8); type: functional;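 note: luminescence read-out of SENP8 inhibition, dose-response confirmation following an ultra-high-throughput screen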
T4 sequence (Q96LD8 whole entry): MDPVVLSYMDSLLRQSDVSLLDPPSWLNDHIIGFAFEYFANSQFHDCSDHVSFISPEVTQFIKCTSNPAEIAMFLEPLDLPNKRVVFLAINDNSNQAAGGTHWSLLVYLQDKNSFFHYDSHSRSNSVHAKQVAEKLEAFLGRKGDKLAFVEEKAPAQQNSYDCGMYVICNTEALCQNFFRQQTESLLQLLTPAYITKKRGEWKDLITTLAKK

[10] = biological target: Cyclin-dependent kinase 7 (Homo sapiens, UniProt P50613); type: functional;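 note: value comes from a kinome-wide kinase profiling panel in which CDK7 is one member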
Sequence of Cyclin-dependent kinase 7 (P50613 whole entry): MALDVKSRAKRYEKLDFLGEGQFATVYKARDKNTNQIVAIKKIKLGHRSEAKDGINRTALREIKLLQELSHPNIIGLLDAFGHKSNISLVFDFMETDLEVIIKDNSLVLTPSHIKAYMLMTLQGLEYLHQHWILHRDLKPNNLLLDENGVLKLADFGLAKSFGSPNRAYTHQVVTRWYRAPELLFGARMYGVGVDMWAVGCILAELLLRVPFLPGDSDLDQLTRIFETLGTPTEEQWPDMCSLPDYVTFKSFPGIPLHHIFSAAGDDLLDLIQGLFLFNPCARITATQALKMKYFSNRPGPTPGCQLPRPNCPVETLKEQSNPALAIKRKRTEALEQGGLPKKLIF

Wee1-like protein kinase = Wee1-like protein kinase (Homo sapiens, UniProt P30291); test: Navigating the Kinome. Panel member name: WEE1; type: functional
Sequence of Wee1-like protein kinase (P30291 whole entry): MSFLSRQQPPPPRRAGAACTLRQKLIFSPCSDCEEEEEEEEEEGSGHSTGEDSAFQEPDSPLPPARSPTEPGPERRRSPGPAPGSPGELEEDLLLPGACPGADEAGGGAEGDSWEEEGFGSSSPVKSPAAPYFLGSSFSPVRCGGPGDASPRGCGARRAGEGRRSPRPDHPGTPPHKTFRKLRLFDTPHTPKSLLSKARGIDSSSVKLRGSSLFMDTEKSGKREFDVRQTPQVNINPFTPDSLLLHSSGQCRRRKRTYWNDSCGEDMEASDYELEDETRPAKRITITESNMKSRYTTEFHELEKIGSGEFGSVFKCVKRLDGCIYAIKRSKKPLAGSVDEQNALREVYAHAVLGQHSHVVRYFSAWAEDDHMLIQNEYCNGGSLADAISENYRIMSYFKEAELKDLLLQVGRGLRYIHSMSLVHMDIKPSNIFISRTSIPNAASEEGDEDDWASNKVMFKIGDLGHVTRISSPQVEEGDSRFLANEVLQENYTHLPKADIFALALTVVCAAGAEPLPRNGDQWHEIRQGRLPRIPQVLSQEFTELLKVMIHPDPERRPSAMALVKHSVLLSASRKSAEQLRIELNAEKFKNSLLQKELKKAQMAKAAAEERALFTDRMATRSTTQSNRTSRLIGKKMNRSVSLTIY

| SMILES | AC50 (Protein RecA) | IC50 (Cysteine protease ATG4B) | IC50 [1] | Ki [2] | Ki [3] | Ki [4] | Ki [5] | Ki [6] | Ki [7] | Ki [8] | IC50 [9] | Ki [10] | Ki (Wee1-like protein kinase) |
| --- | --- | --- | --- | --- | --- | --- | --- | --- | --- | --- | --- | --- | --- |
| CCn1nc(/C=C/c2ccccc2)nc2c(=O)n(C)c(=O)nc1-2 | 0.065 µM (active) | 0.653 µM (active) | 13 µM (active) |  |  |  |  |  |  |  |  |  |  |
| O=c1[nH][nH]c2ccc(Br)cc12 |  |  |  | 63.1 µM (active) | 2.51 µM (active) | 3.16 µM (active) | 79.4 µM (active) | 3.16 µM (active) | 10 µM (active) | 31.6 µM (active) |  |  |  |
| CC(C)c1ccc(-c2nnn(CCC(=O)O)n2)cc1 |  |  |  |  |  |  |  |  |  |  | 7.27 µM (active) |  |  |
| COc1cc2c(cc1Nc1nc(Nc3cccc(F)c3C(N)=O)c3cc[nH]c3n1)N(C(=O)CN(C)C)CC2 |  |  |  | > 2 µM (inactive) | 2.51 µM (active) | 1.26 µM (active) | > 2.51 µM (inactive) | > 3.16 µM (inactive) | > 3.98 µM (inactive) | > 3.98 µM (inactive) |  | 2.51 µM (active) | > 2.51 µM (inactive) |
